Laboratory results published in patent publication US20240270762A1, “PENICILLIN-BINDING PROTEIN INHIBITORS” (priority 2021, published 2024).
≈ marks a conversion by molar mass, not a printed value.

Assays:
[1] = biological target: T1, PBP3 from Escherichia coli (K-12) (Escherichia coli, UniProt P0AD68); experiment: Bocillin-FL fluorescence polarization competition binding, E. coli PBP3
T1 construct: made in house
Description: To determine the ability of boronic acid-based test PBP inhibitors to bind Penicillin Binding Proteins (PBPs), Bocillin-FL (fluorescently-labeled penicillin V; ThermoFisher Scientific) was used in a fluorescence polarization (FP) competition binding assay to assess inhibitor binding to PBP3 from Escherichia coli (K-12), PBP3 from Pseudomonas aeruginosa (PAO1), PBP1a and PBP3 from Acinetobacter baumannii (ATCC 19606), and PBP2 from Neisseria gonorrhoeae (FA19). PBPs were cloned and purified as described previously (E. coli PBP3, King, D. T, et al., ACS Infectious Diseases 2015, 1, 175-184; P. aeruginosa PBP3, Han et. al., PNAS 2010, 107 (51), 22002-22007; A. baumannii PBPs, Penwell et. al., Antimicrob. Agents Chemother. 2015, 59 (3), 1680-1689; N. gonorrhoeae PBP2, Singh et. al., J. Biol. Chem. 2019, 294 (38), 14020-14032). To establish assay conditions for competition binding, enzyme titration/saturation binding experiments were initially performed. Bocillin-FL was prepared at 0.2 μM in a buffer comprised of 50 mM Hepes (pH 8.0), 300 mM NaCl and 10% (v/v) glycerol for reactions with E. coli, P. aeruginosa and N. gonorrhoeae PBPs, and 25 mM Tris (pH 8.0), 200 mM NaCl, 10% (v/v) glycerol and 0.005% (v/v) Tween 20 for reactions with A. baumannii PBPs. Saturation binding was performed by mixing 40 μl of PBP solutions ranging in concentrations from 0-24 μM with 40 μl of the 0.2 μM Bocillin-FL solution, in individual wells of a black 384-well microplate. FP was measured immediately upon mixing (Excitation, 490 nm; Emission, 520 nm; g-factor, 0.96), using a Cytation3 (BioTek) microplate reader and measured continuously for up to 120 minutes. The FP response stabilized after 15 minutes for P. aeruginosa and A. baumannii PBP3, 30 minutes for E. coli PBP3 and A. baumannii PBP1a, and less than 1 minute for N. gonorrhoeae PBP2. […] The competition binding assay (80 μl final volume) was validated using beta-lactams and PBPs at final concentrations of: 1.5 μM for E. coli PBP3; 0.75 μM for P. aeruginosa PBP3; 1 μM for A. baumannii PBP1a; 0.2 μM for A. baumannii PBP3; and 0.25 μM for N. gonorrhoeae PBP2. Bocillin-FL was at 0.1 μM (0.05 μM with A. baumannii PBP1a) and beta-lactam concentrations ranged from 0-1,000 μM. E. coli PBP3 was incubated with increasing concentrations of ampicillin in a black 384-well microplate (Corning) for 30 minutes. P. aeruginosa PBP3 was incubated for 15 minutes with aztreonam, whereas A. baumannii PBP1a and PBP3 were incubated for 15 minutes with meropenem, and then Bocillin-FL was added followed immediately by the FP measurement for up to 60 minutes. […] The beta-lactam potency was reported as the concentration of beta-lactam required to reduce the amount of PBP bound-Bocillin-FL by 50% (EC50). […] The EC50 of aztreonam was determined to be <0.5 μM for P. aeruginosa PBP3. […] Binding assays for boronic acid PBP inhibitors were performed in an identical fashion for the respective PBPs.

E. coli AG100 = experiment: microbe, parasite or virus in culture; assay type: cell-based; details: Escherichia coli, AG100, read-out: MIC E. coli AG100
E. coli 901C = experiment: microbe, parasite or virus in culture; assay type: cell-based; details: Escherichia coli, read-out: MIC E. coli 901C
E. coli D22 = experiment: microbe, parasite or virus in culture; assay type: cell-based; details: Escherichia coli, D22, read-out: MIC E. coli D22
E. coli AG100A = experiment: Broth microdilution MIC in CAMHB; assay type: cell-based; details: Escherichia coli, read-out: MIC E. coli AG100A
K. pneumoniae 848844 = experiment: microbe, parasite or virus in culture; assay type: cell-based; details: Klebsiella pneumoniae, 848844, read-out: MIC K. pneumoniae 848844
K. pneumoniae UMM = experiment: microbe, parasite or virus in culture; assay type: cell-based; details: Klebsiella pneumoniae, read-out: MIC K. pneumoniae UMM
P. aeruginosa ATCC 35151 = experiment: microbe, parasite or virus in culture; assay type: cell-based; details: Pseudomonas aeruginosa, ATCC35151, read-out: MIC P. aeruginosa ATCC 35151
[2] = system: N. gonorrhoeae ATCC 49226; experiment: Liquid broth MIC in Fastidious broth; details: Neisseria gonorrhoeae, ATCC49226, read-out: Minimum Inhibitory Concentration (MIC), N. gonorrhoeae ATCC 49226
N. gonorrhoeae MS11 = experiment: Liquid broth MIC in Fastidious broth; details: Neisseria gonorrhoeae, MS11, read-out: Minimum Inhibitory Concentration (MIC), N. gonorrhoeae MS11
N. gonorrhoeae WHO G = experiment: Liquid broth MIC in Fastidious broth; details: Neisseria gonorrhoeae, read-out: Minimum Inhibitory Concentration (MIC), N. gonorrhoeae WHO G
N. gonorrhoeae WHO L = experiment: Liquid broth MIC in Fastidious broth; details: Neisseria gonorrhoeae, read-out: Minimum Inhibitory Concentration (MIC), N. gonorrhoeae WHO L
N. gonorrhoeae WHO M = experiment: Liquid broth MIC in Fastidious broth; details: Neisseria gonorrhoeae, read-out: Minimum Inhibitory Concentration (MIC), N. gonorrhoeae WHO M
Description: Liquid broth-based assays were used for antibacterial testing of PBP inhibitors in Neisseria gonorrhoeae. Briefly, cryo-preserved bacterial cultures of clinical strains were streaked for isolation on Chocolate Agar (72 g/L (2×) GC Agar Base (BD #228950) and 2% (2×) Hemoglobin was autoclaved at 121° C. for 20 minutes to sterilize. Once cooled to ˜50° C. the 2×GC Agar Base and 2× Hemoglobin solutions are combined and 1% IsoVitaleX Enrichment (BD #211876) was added to the solution). Strains were incubated at 36° C. and 5% CO2 to allow growth of colonies, 24 hours before inoculum preparation. 2-fold serial dilutions of test compounds were conducted in a 96 well plate with a final volume of 75 μL per well at 2-fold the final desired concentration in Fastidious broth (Remel #R07664). For preparation of assay inoculum, a direct suspension was prepared by aseptically swabbing 10-15 colonies from agar plates into culture tubes containing 2 mL of fresh sterile saline. After the dilution plates were set up, direct suspensions were then diluted in a cuvette containing sterile saline and the optical density was measured at 600 nm. Inocula were diluted such that 75 μL of this culture in Fastidious broth results in a starting bacterial concentration of 5×10^5 CFU/mL when added to the dilution plates. The plates were incubated for ˜24 hours at 36° C. and 5% CO2.

N. gonorrhoeae WHO X = experiment: Liquid broth MIC in Fastidious broth; details: Neisseria gonorrhoeae, read-out: Minimum Inhibitory Concentration (MIC), N. gonorrhoeae WHO X

T1 sequence (P0AD68 1-577): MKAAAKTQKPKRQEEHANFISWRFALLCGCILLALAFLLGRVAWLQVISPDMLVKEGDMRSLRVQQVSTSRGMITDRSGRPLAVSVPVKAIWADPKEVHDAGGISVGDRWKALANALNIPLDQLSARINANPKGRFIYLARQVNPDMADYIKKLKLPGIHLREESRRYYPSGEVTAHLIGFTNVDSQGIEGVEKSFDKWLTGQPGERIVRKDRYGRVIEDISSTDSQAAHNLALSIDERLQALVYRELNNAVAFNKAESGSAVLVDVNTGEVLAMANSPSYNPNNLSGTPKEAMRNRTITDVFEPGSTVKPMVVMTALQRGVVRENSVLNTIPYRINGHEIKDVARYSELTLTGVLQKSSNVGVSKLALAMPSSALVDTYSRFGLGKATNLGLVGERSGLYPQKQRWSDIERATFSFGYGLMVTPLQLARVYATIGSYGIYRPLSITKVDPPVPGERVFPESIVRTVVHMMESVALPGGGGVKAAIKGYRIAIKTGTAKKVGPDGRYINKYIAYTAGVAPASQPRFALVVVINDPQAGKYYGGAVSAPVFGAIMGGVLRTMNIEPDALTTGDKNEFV

SMILES	EC50 [1]	MIC (E. coli AG100)	MIC (E. coli 901C)	MIC (E. coli D22)	MIC (E. coli AG100A)	MIC (K. pneumoniae 848844)	MIC (K. pneumoniae UMM)	MIC (P. aeruginosa ATCC 35151)	MIC [2]	MIC (N. gonorrhoeae MS11)	MIC (N. gonorrhoeae WHO G)	MIC (N. gonorrhoeae WHO L)	MIC (N. gonorrhoeae WHO M)	MIC (N. gonorrhoeae WHO X)
CCN1CCN(C(=O)NC(C(=O)N[C@H]2Cc3cccc(C(=O)O)c3OB2O)c2ccc(S(=O)(=O)O)cc2)C(=O)C1=O (stereo partly drawn) [Example 189, (3R)-3-(2-(4-ethyl-2,3-dioxopiperazine-1-carboxamido)-2-(4-sulfophenyl)acetamido)-2-hydroxy-3,4-dihydro-2H-benzo[e][1,2]oxaborinine-8-carboxylic acid]	10 to 50 µM	32 to 64 µg/mL (≈ 54.4 to 109 µM)	< 1 µg/mL	2 to 4 µg/mL (≈ 3.4 to 6.8 µM)	8 to 16 µg/mL (≈ 13.6 to 27.2 µM)	> 128 µg/mL	32 to 64 µg/mL (≈ 54.4 to 109 µM)	< 1 µg/mL	< 1 µg/mL	< 1 µg/mL	< 1 µg/mL	4 to 8 µg/mL (≈ 6.8 to 13.6 µM)	< 1 µg/mL	4 to 8 µg/mL (≈ 6.8 to 13.6 µM)
CC(=O)N1CCC[C@@H]1C(=O)N[C@H](C(=O)N[C@H]1Cc2cccc(C(=O)O)c2OB1O)c1ccc(P(=O)(O)O)cc1 [Example 33, (3R)-3-(2-((R)-1-acetylpyrrolidine-2-carboxamido)-2-(4-phosphonophenyl)acetamido)-2-hydroxy-3,4-dihydro-2H-benzo[e][1,2]oxaborinine-8-carboxylic acid]	50 to 250 µM	> 128 µg/mL	32 to 64 µg/mL (≈ 57.2 to 114 µM)	32 to 64 µg/mL (≈ 57.2 to 114 µM)	> 128 µg/mL	> 128 µg/mL	> 128 µg/mL	8 to 16 µg/mL (≈ 14.3 to 28.6 µM)	16 to 32 µg/mL (≈ 28.6 to 57.2 µM)	16 to 32 µg/mL (≈ 28.6 to 57.2 µM)	16 to 32 µg/mL (≈ 28.6 to 57.2 µM)	16 to 32 µg/mL (≈ 28.6 to 57.2 µM)	4 to 8 µg/mL (≈ 7.15 to 14.3 µM)	16 to 32 µg/mL (≈ 28.6 to 57.2 µM)
CCN1CCN(C(=O)NC(C(=O)N[C@H]2Cc3cccc(C(=O)O)c3OB2O)c2c(F)cc(P(=O)(O)O)cc2F)C(=O)C1=O (stereo partly drawn) [Example 25, (3R)-3-(2-(2,6-difluoro-4-phosphonophenyl)-2-(4-ethyl-2,3-dioxopiperazine-1-carboxamido)acetamido)-2-hydroxy-3,4-dihydro-2H-benzo[e][1,2]oxaborinine-8-carboxylic acid]	< 10 µM	32 to 64 µg/mL (≈ 51.3 to 103 µM)	< 1 µg/mL	2 to 4 µg/mL (≈ 3.2 to 6.41 µM)	32 to 64 µg/mL (≈ 51.3 to 103 µM)	> 128 µg/mL	32 to 64 µg/mL (≈ 51.3 to 103 µM)	2 to 4 µg/mL (≈ 3.2 to 6.41 µM)	< 1 µg/mL	< 1 µg/mL	< 1 µg/mL	1 to 2 µg/mL (≈ 1.6 to 3.2 µM)	< 1 µg/mL	4 to 8 µg/mL (≈ 6.41 to 12.8 µM)
O=C(O)c1cccc2c1OB(O)[C@@H](NC(=O)[C@H](NC(=O)c1ccn[nH]c1=O)c1ccc(P(=O)(O)O)cc1)C2 (single isomer, unassigned) [Example 178]	< 10 µM	> 128 µg/mL	< 1 µg/mL	2 to 4 µg/mL (≈ 3.69 to 7.38 µM)	32 to 64 µg/mL (≈ 59 to 118 µM)	> 128 µg/mL	32 to 64 µg/mL (≈ 59 to 118 µM)	< 1 µg/mL	< 1 µg/mL	< 1 µg/mL	< 1 µg/mL	1 to 2 µg/mL (≈ 1.84 to 3.69 µM)	< 1 µg/mL	4 to 8 µg/mL (≈ 7.38 to 14.8 µM)
CN1CCCN(C(=O)NC(C(=O)N[C@H]2Cc3cccc(C(=O)O)c3OB2O)c2ccc(P(=O)(O)O)cc2)C1=O (stereo partly drawn) [Example 38, (3R)-2-hydroxy-3-(2-(3-methyl-2-oxohexahydropyrimidine-1-carboxamido)-2-(4-phosphonophenyl)acetamido)-3,4-dihydro-2H-benzo[e][1,2]oxaborinine-8-carboxylic acid]	10 to 50 µM	> 128 µg/mL	2 to 4 µg/mL (≈ 3.57 to 7.14 µM)	8 to 16 µg/mL (≈ 14.3 to 28.6 µM)	32 to 64 µg/mL (≈ 57.1 to 114 µM)	> 128 µg/mL	> 128 µg/mL	2 to 4 µg/mL (≈ 3.57 to 7.14 µM)	1 to 2 µg/mL (≈ 1.78 to 3.57 µM)	1 to 2 µg/mL (≈ 1.78 to 3.57 µM)	< 1 µg/mL	16 to 32 µg/mL (≈ 28.6 to 57.1 µM)	< 1 µg/mL	16 to 32 µg/mL (≈ 28.6 to 57.1 µM)
CCC(=O)NC(C(=O)N[C@H]1Cc2cccc(C(=O)O)c2OB1O)c1ccc(P(=O)(O)O)cc1 (stereo partly drawn) [Example 27, (3R)-2-hydroxy-3-(2-(4-phosphonophenyl)-2-propionamidoacetamido)-3,4-dihydro-2H-benzo[e][1,2]oxaborinine-8-carboxylic acid]	50 to 250 µM	> 128 µg/mL	8 to 16 µg/mL (≈ 16.8 to 33.6 µM)	32 to 64 µg/mL (≈ 67.2 to 134 µM)	> 128 µg/mL	> 128 µg/mL	> 128 µg/mL	8 to 16 µg/mL (≈ 16.8 to 33.6 µM)	16 to 32 µg/mL (≈ 33.6 to 67.2 µM)	16 to 32 µg/mL (≈ 33.6 to 67.2 µM)	4 to 8 µg/mL (≈ 8.4 to 16.8 µM)	16 to 32 µg/mL (≈ 33.6 to 67.2 µM)	4 to 8 µg/mL (≈ 8.4 to 16.8 µM)	16 to 32 µg/mL (≈ 33.6 to 67.2 µM)
O=C(O)c1cccc2c1OB(O)[C@@H](NC(=O)C(NC(=O)c1ncccc1Cl)c1ccc(P(=O)(O)O)cc1)C2 (stereo partly drawn) [Example 183, (3R)-3-(2-(3-chloropicolinamido)-2-(4-phosphonophenyl)acetamido)-2-hydroxy-3,4-dihydro-2H-benzo[e][1,2]oxaborinine-8-carboxylic acid]	50 to 250 µM	> 128 µg/mL	8 to 16 µg/mL (≈ 14.3 to 28.6 µM)	32 to 64 µg/mL (≈ 57.2 to 114 µM)	> 128 µg/mL	> 128 µg/mL	> 128 µg/mL	8 to 16 µg/mL (≈ 14.3 to 28.6 µM)	4 to 8 µg/mL (≈ 7.15 to 14.3 µM)	4 to 8 µg/mL (≈ 7.15 to 14.3 µM)	4 to 8 µg/mL (≈ 7.15 to 14.3 µM)	16 to 32 µg/mL (≈ 28.6 to 57.2 µM)	1 to 2 µg/mL (≈ 1.79 to 3.57 µM)	16 to 32 µg/mL (≈ 28.6 to 57.2 µM)
Nc1nc(C(=O)N[C@@H](C(=O)N[C@H]2Cc3cccc(C(=O)O)c3OB2O)c2ccc(P(=O)(O)O)cc2)cs1 (racemic) [Example 51, (R)-3-((S)-2-(2-aminothiazole-4-carboxamido)-2-(4-phosphonophenyl)acetamido)-2-hydroxy-3,4-dihydro-2H-benzo[e][1,2]oxaborinine-8-carboxylic acid and (R)-3-((R)-2-(2-aminothiazole-4-carboxamido)-2-(4-phosphonophenyl)acetamido)-2-hydroxy-3,4-dihydro-2H-benzo[e][1,2]oxaborinine-8-carboxylic acid]	10 to 50 µM	> 128 µg/mL	< 1 µg/mL	2 to 4 µg/mL (≈ 3.66 to 7.32 µM)	32 to 64 µg/mL (≈ 58.6 to 117 µM)	> 128 µg/mL	32 to 64 µg/mL (≈ 58.6 to 117 µM)	2 to 4 µg/mL (≈ 3.66 to 7.32 µM)	< 1 µg/mL	< 1 µg/mL	< 1 µg/mL	4 to 8 µg/mL (≈ 7.32 to 14.6 µM)	< 1 µg/mL	4 to 8 µg/mL (≈ 7.32 to 14.6 µM)
